Measurements: paper PMC6044684 (ACS Omega, 2016)

Biological target: epidermal growth factor receptor (EGFR) (Homo sapiens, UniProt P00533)
Experiment: SPR
Format: binding

epidermal growth factor receptor (EGFR), sequence (P00533 25-1210): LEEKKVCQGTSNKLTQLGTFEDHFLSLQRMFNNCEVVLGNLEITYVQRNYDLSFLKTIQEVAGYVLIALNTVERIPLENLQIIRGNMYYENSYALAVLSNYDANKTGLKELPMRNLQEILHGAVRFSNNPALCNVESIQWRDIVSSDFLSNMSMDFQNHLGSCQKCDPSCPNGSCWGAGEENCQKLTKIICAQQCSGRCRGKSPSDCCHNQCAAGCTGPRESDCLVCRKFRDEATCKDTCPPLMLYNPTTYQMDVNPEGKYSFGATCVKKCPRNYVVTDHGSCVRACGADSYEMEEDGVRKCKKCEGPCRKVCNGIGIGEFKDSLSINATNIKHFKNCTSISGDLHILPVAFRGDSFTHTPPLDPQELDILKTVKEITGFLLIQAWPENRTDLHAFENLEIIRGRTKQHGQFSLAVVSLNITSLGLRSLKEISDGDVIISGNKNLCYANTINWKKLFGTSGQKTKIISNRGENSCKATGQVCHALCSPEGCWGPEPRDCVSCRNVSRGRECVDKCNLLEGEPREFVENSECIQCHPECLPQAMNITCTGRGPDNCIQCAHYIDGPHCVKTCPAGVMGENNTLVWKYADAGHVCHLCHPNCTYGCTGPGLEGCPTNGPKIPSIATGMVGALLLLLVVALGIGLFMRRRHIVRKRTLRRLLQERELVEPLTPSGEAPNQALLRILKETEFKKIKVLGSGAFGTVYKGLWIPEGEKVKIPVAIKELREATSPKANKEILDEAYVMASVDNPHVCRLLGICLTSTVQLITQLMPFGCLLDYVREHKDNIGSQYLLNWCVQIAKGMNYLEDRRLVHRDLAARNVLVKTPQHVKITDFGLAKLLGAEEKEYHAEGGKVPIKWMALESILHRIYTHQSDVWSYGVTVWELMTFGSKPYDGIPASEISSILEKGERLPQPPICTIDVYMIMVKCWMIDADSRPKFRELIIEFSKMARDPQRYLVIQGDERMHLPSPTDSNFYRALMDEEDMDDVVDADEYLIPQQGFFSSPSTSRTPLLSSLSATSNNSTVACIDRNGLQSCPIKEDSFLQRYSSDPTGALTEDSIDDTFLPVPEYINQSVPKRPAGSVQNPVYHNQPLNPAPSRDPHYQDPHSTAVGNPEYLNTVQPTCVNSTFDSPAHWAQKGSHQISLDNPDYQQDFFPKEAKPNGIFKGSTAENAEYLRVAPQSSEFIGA

Kd: 11.8 ± 2.4 µM
SMILES: Clc1ccc(C2=NN(c3nc(C45CC6CC(CC(C6)C4)C5)cs3)C(c3ccccc3)C2)c(Cl)c1 (stereo not shown) [3e, 4-(adamantan-1-yl)-2-(3-(2,4-dichlorophenyl)-5-phenyl-4,5-dihydro-1H-pyrazol-1-yl)thiazole]
